Laboratory results from article PMC6528465 (ACS infectious diseases, 2018).

System: Mtb K204
Type: cell-based, Mycobacterium tuberculosis
Settings: no inhibitor

SMILES: NC[C@H]1O[C@H](O[C@H]2[C@H](O)[C@@H](O[C@H]3O[C@H](CO)[C@@H](O)[C@H](N)[C@H]3O)[C@H](N)C[C@@H]2N)[C@H](O)[C@@H](O)[C@@H]1O [KAN, kanamycin]
- K204 MICKAN: >10 µg/mL
